Source: patent publication US20230312587A1, “PTERIDINONE COMPOUNDS AND USES THEREOF” (Vertex Pharmaceutical Incorporated, priority 2018, published 2023)
Where two headings read alike, the source gives them in different places.

System: β-catenin-TCF-mediated reporter transcription activity in Colo 205 cells
Test: Colo 205 reporter assay (TCF/LEF luciferase)
Type: cell-based
Conditions: Colo 205 TCF/LEF luciferase reporter, read-out: TCF reporter Colo205 IC50
From the text: The compounds of the invention described herein were screened using the assay procedure for β-catenin-TCF-mediated reporter transcription activity described below.
Reporter cell lines were generated by stably transfecting cells of cancer cell lines (e.g., colon cancer) with a plasmid reporter construct (From SABiosciences, a QIAGEN company) that includes TCF/LEF promoter driving expression of the firefly luciferase gene. TCF/LEF reporter constructs were made in which TCF/LEF promoter, a promoter with optimal number of TCF/LEF binding sites designed by SABiosceinces, was linked upstream of the firefly luciferase gene. This construct could also include a puromycin resistance gene as a selectable marker. This construct could also be used to stably transfect Colo 205 cells, a colon cancer cell line having a mutated APC gene that causes a constitutively active β-catenin. A control cell line was generated using another plasmid construct containing the luciferase gene under the control of a CMV basal promoter which is not activated by p-catenin.
Colo 205 Cultured cells with a stably transfected reporter construct were plated at approximately 10,000 cells per well into 384 well multi-well plates for twenty four hours. The testing compounds were then added to the wells in 2-fold serial dilutions using a twenty micromolar top concentration. A series of control wells for each cell type received only compound solvent. Five hours after the addition of compound, reporter activity for luciferase was assayed, by addition of the SteadyGlo luminescence reagent (Promega). The reporter luminescence activity was measured using Pherastar plate reader (BMG Labtech). Readings were normalized to DMSO only treated cells, and normalized activities were then used in the IC50 calculations. The Colo 205 reporter assay data are summarized in Table 45: A<0.3 μM; 0.3 μM≤B<1.0 μM; 1.0 μM≤C<5.0 μM; D≥5.0 μM
Colo 205 reporter assay data has also been obtained for certain R-isomers of Formula (I) wherein R^4 is —H or -D, and wherein the carbon to which R^3 and R^4 are attached (C2 carbon of Formula (X)) has R stereochemistry; such epimeric compounds are represented using the suffix “B” attached to the Compound described herein having the S stereochemistry at the carbon to which R^3 and R^4 are attached: […]

[1] = five hours after addition of compound
[2] = Homo sapiens, COLO 205, 5 h, five hours after addition of compound

For `C[C@H]1C(=O)Nc2cnc(NC3CC(C)(OCc4cc(F)c(F)c(F)c4)C3)nc2N1C` (stereo in doubt) [Compound 289, (S)-7,8-dimethyl-2-((cis-3-methyl-3-((3,4,5-trifluorobenzyl)oxy)cyclobutyl)amino)-7,8-dihydropteridin-6(5H)-one], the IC50 [1] was ≥ 5000 nM.

For `Cc1nc(NCc2cnn(Cc3ccc(C(F)(F)F)nc3)c2)nc2c1NC(=O)[C@H](CC(C)C)N2C` [Compound 563, (S)-7-isobutyl-4,8-dimethyl-2-(((1-((6-(trifluoromethyl)pyridin-3-yl)methyl)-1H-pyrazol-4-yl)methyl)amino)-7,8-dihydropteridin-6(5H)-one], the IC50 [2] was < 300 nM.

`COc1c(F)ccc(Cn2cc(CNc3nc(C)c4c(n3)N(C)[C@@H](C)C(=O)N4)cn2)c1F` [Compound 88, (7S)-2-(((1-(2,4-difluoro-3-methoxybenzyl)-1H-pyrazol-4-yl)methyl)amino)-4,7,8-trimethyl-7,8-dihydropteridin-6(5H)-one] was tested, and the IC50 [2] was < 300 nM.

For `Cc1nc(N[C@H]2C[C@H](Oc3ccc(C(F)(F)F)nc3)C2)nc2c1N(C)C(=O)[C@H](C)N2C` [Compound 323, (7S)-4,5,7,8-tetramethyl-2-((trans-3-((6-(trifluoromethyl)pyridin-3-yl)oxy)cyclobutyl)amino)-7,8-dihydropteridin-6(5H)-one], the IC50 [2] was < 300 nM.

`Cc1nc(N[C@H]2C[C@H](n3nccc3C(F)(F)F)C2)nc2c1NC(=O)[C@H](C(C)C)N2C` [Compound 673, (7S)-7-isopropyl-4,8-dimethyl-2-((trans-3-(5-(trifluoromethyl)-1H-pyrazol-1-yl)cyclobutyl)amino)-7,8-dihydropteridin-6(5H)-one] showed an IC50 [2] of 300 to 1000 nM.

With “(7R)-5,7,8-triethyl-7-methyl-2-(((1-(3,4,5-trifluorobenzyl)-1H-pyrazol-4-yl)methyl)amino)-7,8-dihydropteridin-6(5H)-one [Compound 235]” the IC50 [1] was < 300 nM.

With `Cc1cc(C(=O)N2CC(Nc3nc(C)c4c(n3)N(C)[C@@H](C(C)C)C(=O)N4)C2)on1` [Compound 620, (S)-7-isopropyl-4,8-dimethyl-2-((1-(3-methylisoxazole-5-carbonyl)azetidin-3-yl)amino)-7,8-dihydropteridin-6(5H)-one] the IC50 [2] was ≥ 5000 nM.

With `Cc1nc(NCc2cnn(Cc3ccc(C(F)(F)F)nc3)c2)nc2c1NC(=O)[C@H]([C@H](C)OC(C)(C)C)N2C` [Compound 742, (S)-7-((S)-1-(tert-butoxy)ethyl)-4,8-dimethyl-2-(((1-((6-(trifluoromethyl)pyridin-3-yl)methyl)-1H-pyrazol-4-yl)methyl)amino)-7,8-dihydropteridin-6(5H)-one] the IC50 [2] was 1000 to 5000 nM.

`Cc1nc(N[C@H]2CC[C@H](Oc3cc(F)c(F)c(F)c3)C2)nc2c1NC(=O)[C@H](C)N2C` (mixture of isomers) [Compound 260, (7S)-4,7,8-trimethyl-2-((trans-3-(3,4,5-trifluorophenoxy)cyclopentyl)amino)-7,8-dihydropteridin-6(5H)-one] gave an IC50 [2] of 300 to 1000 nM.

In the case of `Cc1nc(N[C@H]2C[C@@H](CNc3cnc(C(F)(F)F)cn3)C2)nc2c1NC(=O)[C@H](C)N2C` [Compound 714, (S)-4,7,8-trimethyl-2-((cis-3-(((5-(trifluoromethyl)pyrazin-2-yl)amino)methyl)cyclobutyl)amino)-7,8-dihydropteridin-6(5H)-one], the IC50 [2] is reported as < 300 nM.

In the case of `Cc1cc(OC(C)(C)C)ncc1Cn1cc(CNc2nc(C)c3c(n2)N(C)[C@@H](C)C(=O)N3)cn1` [Compound 167, (7S)-2-(((1-((6-(tert-butoxy)-4-methylpyridin-3-yl)methyl)-1H-pyrazol-4-yl)methyl)amino)-4,7,8-trimethyl-7,8-dihydropteridin-6(5H)-one], the IC50 [2] is reported as < 300 nM.

`Cc1nc(N[C@H]2C[C@H](NC(=O)N3CCC(F)(F)CC3)C2)nc2c1NC(=O)[C@H](C(C)C)N2C` [Compound 523, 4,4-difluoro-N-(trans-3-(((S)-7-isopropyl-4,8-dimethyl-6-oxo-5,6,7,8-tetrahydropteridin-2-yl)amino)cyclobutyl)piperidine-1-carboxamide] was tested, and the IC50 [2] was ≥ 5000 nM.

Work on `Cc1nc(N[C@H]2C[C@H](Nc3ccc(C(F)(F)F)nc3)C2)nc2c1NC(=O)[C@H](C(C)C)N2C` [Compound 587, (S)-7-isopropyl-4,8-dimethyl-2-((trans-3-((6-(trifluoromethyl)pyridin-3-yl)amino)cyclobutyl)amino)-7,8-dihydropteridin-6(5H)-one] yielded an IC50 [2] of 300 to 1000 nM.

`Cc1nc(N[C@H]2C[C@@H](COc3cncc(F)c3)C2)nc2c1NC(=O)[C@H](C)N2C` [Compound 263, (7S)-2-((cis-3-(((5-fluoropyridin-3-yl)oxy)methyl)cyclobutyl)amino)-4,7,8-trimethyl-7,8-dihydropteridin-6(5H)-one] showed an IC50 [2] of 300 to 1000 nM.

In the case of `Cc1nc(NC2CN(C(=O)c3ccc(F)cc3)C2)nc2c1NC(=O)[C@H](C(C)C)N2C` [Compound 548, (S)-2-((1-(4-fluorobenzoyl)azetidin-3-yl)amino)-7-isopropyl-4,8-dimethyl-7,8-dihydropteridin-6(5H)-one], the IC50 [2] is reported as 300 to 1000 nM.

For `Cc1nc(NCc2cnn(Cc3ccc(C4CC4)nc3)c2)nc2c1NC(=O)[C@H](C1CC1)N2C` [Compound 441, (7S)-7-cyclopropyl-2-(((1-((6-cyclopropylpyridin-3-yl)methyl)-1H-pyrazol-4-yl)methyl)amino)-4,8-dimethyl-7,8-dihydropteridin-6(5H)-one], the IC50 [2] was < 300 nM.

`CC[C@@H]1C(=O)N(C)c2cnc(NCc3cnn(Cc4ccc(F)cc4)c3)nc2N1C(C)C` [Compound I-1146] gave an IC50 (Homo sapiens, COLO 205, 5 h, R-isomer at C2 (corresponding to C2 S-isomer), 5 h) of 300 to 1000 nM.

Work on `[2H]C([2H])(O)c1nc(NCc2cnn(Cc3ccc(C(F)(F)F)nc3)c2)nc2c1NC(=O)[C@H](C)N2C` [Compound 493, (7S)-4-(hydroxymethyl-d2)-7,8-dimethyl-2-(((1-((6-(trifluoromethyl)pyridin-3-yl)methyl)-1H-pyrazol-4-yl)methyl)amino)-7,8-dihydropteridin-6(5H)-one] yielded an IC50 [2] of 1000 to 5000 nM.

With `Cc1nc(NC2CN(C(=O)C3(C)CCCO3)C2)nc2c1NC(=O)[C@H](C(C)C)N2C` (stereo partly drawn) [Compound 638, (7S)-7-isopropyl-4,8-dimethyl-2-((1-(2-methyltetrahydrofuran-2-carbonyl)azetidin-3-yl)amino)-7,8-dihydropteridin-6(5H)-one] the IC50 [2] was ≥ 5000 nM.

In the case of `CC[C@H]1C(=O)Nc2c(C)nc(NCc3cnn(Cc4ccc(OCC(F)(F)F)nc4)c3)nc2N1C` [Compound 433, (7S)-7-ethyl-4,8-dimethyl-2-(((1-((6-(2,2,2-trifluoroethoxy)pyridin-3-yl)methyl)-1H-pyrazol-4-yl)methyl)amino)-7,8-dihydropteridin-6(5H)-one], the IC50 [2] is reported as < 300 nM.

For `Cc1nc(NC2CN(C(=O)[C@@H]3CCCO3)C2)nc2c1NC(=O)[C@H](C(C)C)N2C` [Compound 642, (S)-7-isopropyl-4,8-dimethyl-2-((1-((S)-tetrahydrofuran-2-carbonyl)azetidin-3-yl)amino)-7,8-dihydropteridin-6(5H)-one], the IC50 [2] was ≥ 5000 nM.

`Cc1nc(NC2CN(C(=O)C3CC4CCC3C4)C2)nc2c1NC(=O)[C@H](C(C)C)N2C` (stereo partly drawn) [Compound 639, (7S)-2-((1-(bicyclo[2.2.1]heptane-2-carbonyl)azetidin-3-yl)amino)-7-isopropyl-4,8-dimethyl-7,8-dihydropteridin-6(5H)-one] was tested, and the IC50 [2] was 1000 to 5000 nM.

In the case of `Cc1nc(NCc2cnn(Cc3ccc(OC(F)F)nc3)c2)nc2c1NC(=O)[C@H](C(C)C)N2C` [Compound 422, (7S)-2-(((1-((6-(difluoromethoxy)pyridin-3-yl)methyl)-1H-pyrazol-4-yl)methyl)amino)-7-isopropyl-4,8-dimethyl-7,8-dihydropteridin-6(5H)-one], the IC50 [2] is reported as < 300 nM.

`COc1cc(F)ccc1O[C@H]1C[C@H](Nc2nc(C)c3c(n2)N(C)[C@@H](C)C(=O)N3C)C1` [Compound 345, (7S)-2-((trans-3-(4-fluoro-2-methoxyphenoxy)cyclobutyl)amino)-4,5,7,8-tetramethyl-7,8-dihydropteridin-6(5H)-one] showed an IC50 [2] of 300 to 1000 nM.

Work on `C[C@H]1C(=O)Nc2cnc(NCc3cnn(CCOc4ccc(F)cc4)c3)nc2N1C` [Compound 109, (7S)-2-(((1-(2-(4-fluorophenoxy)ethyl)-1H-pyrazol-4-yl)methyl)amino)-7,8-dimethyl-7,8-dihydropteridin-6(5H)-one] yielded an IC50 [2] of 1000 to 5000 nM.

For `Cc1nc(NCc2cnn(Cc3ccc(C#N)nc3)c2)nc2c1NC(=O)[C@H](C)N2C` [Compound 176, (7S)-5-((4-(((4,7,8-trimethyl-6-oxo-5,6,7,8-tetrahydropteridin-2-yl)amino)methyl)-1H-pyrazol-1-yl)methyl)picolinonitrile], the IC50 [2] was 300 to 1000 nM.
